Data published in ChEMBL document CHEMBL1909046, “DrugMatrix in vitro pharmacology data”.

Columns and labels:
D(1A) dopamine receptor = D(1A) dopamine receptor (Homo sapiens, UniProt P21728); experiment: DRUGMATRIX: Dopamine D1 radioligand binding (ligand: [3H] SCH-23390); assay type: cell membranes, CHO, Membrane; settings: cho; Not Active = under 50% inhibition at 10 µM
[1] = DRUGMATRIX: Tumor Necrosis Factor (TNF), Non-Selective radioligand binding (ligand: [125I] TNF-alpha); assay type: cell membranes, Membrane; settings: u-937; Not Active = under 50% inhibition at 10 µM
[2] = DRUGMATRIX: GABAA, Chloride Channel, TBOB radioligand binding (ligand: [3H] TBOB); assay type: cell membranes, Rattus norvegicus, Wistar, Cerebral cortex, Membrane; settings: Not Active = under 50% inhibition at 10 µM
[3] = biological target: Sodium-dependent dopamine transporter (Homo sapiens, UniProt Q01959); experiment: DRUGMATRIX: Dopamine Transporter radioligand binding (ligand: [125I] RTI-55); assay type: cell membranes, CHO-K1, Membrane; settings: cho-k1; Not Active = under 50% inhibition at 10 µM
Chain of Sodium-dependent dopamine transporter (Q01959 whole entry): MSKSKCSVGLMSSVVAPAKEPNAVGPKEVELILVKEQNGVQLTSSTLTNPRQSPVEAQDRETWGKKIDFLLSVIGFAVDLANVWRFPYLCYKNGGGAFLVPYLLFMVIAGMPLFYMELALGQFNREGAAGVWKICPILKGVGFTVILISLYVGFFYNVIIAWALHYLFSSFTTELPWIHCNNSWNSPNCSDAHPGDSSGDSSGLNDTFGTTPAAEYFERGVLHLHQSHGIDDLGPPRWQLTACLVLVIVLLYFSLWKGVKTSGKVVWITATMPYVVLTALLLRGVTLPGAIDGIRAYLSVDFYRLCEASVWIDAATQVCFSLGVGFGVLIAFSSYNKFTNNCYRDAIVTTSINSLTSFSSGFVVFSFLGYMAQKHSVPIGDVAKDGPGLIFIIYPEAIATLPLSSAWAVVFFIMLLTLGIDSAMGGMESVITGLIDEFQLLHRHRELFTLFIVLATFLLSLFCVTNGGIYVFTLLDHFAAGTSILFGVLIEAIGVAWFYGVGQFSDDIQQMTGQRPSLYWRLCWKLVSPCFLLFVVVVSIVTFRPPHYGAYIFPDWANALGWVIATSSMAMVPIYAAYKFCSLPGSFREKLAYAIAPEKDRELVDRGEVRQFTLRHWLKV

[4] = DRUGMATRIX: Glutamate, NMDA, Phencyclidine radioligand binding (ligand: [3H] TCP); assay type: cell membranes, Rattus norvegicus, Wistar, Cerebral cortex, Membrane; settings: Not Active = under 50% inhibition at 10 µM
Cytochrome P450 2C19 = Cytochrome P450 2C19 (Homo sapiens, UniProt P33261); settings: bti-tn-5b1-4; further: in other assays of this panel Not Active means under 50% inhibition at 10 µM
Chain of Cytochrome P450 2C19 (P33261 whole entry): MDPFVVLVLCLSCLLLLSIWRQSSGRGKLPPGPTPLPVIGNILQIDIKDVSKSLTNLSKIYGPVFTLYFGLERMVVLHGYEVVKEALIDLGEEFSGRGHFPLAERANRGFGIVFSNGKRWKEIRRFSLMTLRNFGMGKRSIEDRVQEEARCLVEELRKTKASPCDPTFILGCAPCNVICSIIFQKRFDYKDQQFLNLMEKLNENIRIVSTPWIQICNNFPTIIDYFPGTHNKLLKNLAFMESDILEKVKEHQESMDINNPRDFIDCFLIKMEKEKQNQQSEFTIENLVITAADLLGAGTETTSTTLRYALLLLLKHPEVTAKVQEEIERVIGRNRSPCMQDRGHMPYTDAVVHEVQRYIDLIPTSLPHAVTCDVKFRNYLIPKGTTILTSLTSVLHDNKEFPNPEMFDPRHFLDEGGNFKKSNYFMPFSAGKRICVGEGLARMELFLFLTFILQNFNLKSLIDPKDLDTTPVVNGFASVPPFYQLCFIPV

[5] = DRUGMATRIX: Purinergic P2X radioligand binding (ligand: [3H] alpha, beta-Methylene-ATP); assay type: cell membranes, Oryctolagus cuniculus, New Zealand albino, Urinary bladder, Membrane; settings: Not Active = under 50% inhibition at 10 µM
[6] = DRUGMATRIX: Platelet-Derived Growth Factor (PDGF) radioligand binding (ligand: [125I] PDGF); assay type: cell-based; settings: nih3t3; Not Active = under 50% inhibition at 10 µM
[7] = DRUGMATRIX: Phosphodiesterase PDE4 enzyme inhibition (substrate: [3H]cAMP + cAMP); settings: u-937; Not Active = under 50% inhibition at 10 µM

Chain of D(1A) dopamine receptor (P21728 whole entry): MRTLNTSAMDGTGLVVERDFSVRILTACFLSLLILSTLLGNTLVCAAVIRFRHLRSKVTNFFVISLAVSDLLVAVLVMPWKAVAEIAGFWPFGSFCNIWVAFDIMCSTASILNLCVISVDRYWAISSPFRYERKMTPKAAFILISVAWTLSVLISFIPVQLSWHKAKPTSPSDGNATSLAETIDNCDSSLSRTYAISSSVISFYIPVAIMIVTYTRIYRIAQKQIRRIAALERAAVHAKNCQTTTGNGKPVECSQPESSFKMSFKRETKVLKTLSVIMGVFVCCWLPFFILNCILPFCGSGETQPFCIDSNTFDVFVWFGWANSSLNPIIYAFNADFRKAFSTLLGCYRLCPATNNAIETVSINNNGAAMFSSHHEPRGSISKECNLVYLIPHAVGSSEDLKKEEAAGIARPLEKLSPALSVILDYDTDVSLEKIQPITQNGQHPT

CCCCC(=O)N(Cc1ccc(-c2ccccc2-c2nnn[nH]2)cc1)[C@H](C(=O)O)C(C)C
Not Active: IC50 (D(1A) dopamine receptor) | IC50 [1] | Ki [1] | IC50 [2] | Ki [2] | IC50 [3] | IC50 [4] | Ki [4] | IC50 (Cytochrome P450 2C19) | Ki (Cytochrome P450 2C19) | IC50 [5] | Ki [5] | IC50 [6] | Ki [6] | IC50 [7] | Ki [7]

O=C(O)COc1ccc(C(=O)c2cccs2)c(Cl)c1Cl
Not Active: IC50 (D(1A) dopamine receptor) | IC50 [1] | Ki [1] | IC50 [2] | Ki [2] | IC50 [3] | IC50 [4] | Ki [4] | IC50 (Cytochrome P450 2C19) | Ki (Cytochrome P450 2C19) | IC50 [5] | Ki [5] | IC50 [6] | Ki [6] | IC50 [7] | Ki [7]

CN1[C@@H]2CC[C@H]1C[C@@H](OC(c1ccccc1)c1ccccc1)C2 [BENZTROPINE]
Not Active: IC50 (Cytochrome P450 2C19) | Ki (Cytochrome P450 2C19)

C[C@@](Cc1ccc(O)c(O)c1)(NN)C(=O)O.O [CARBIDOPA]
Not Active: IC50 (D(1A) dopamine receptor) | IC50 [1] | Ki [1] | IC50 [2] | Ki [2] | IC50 [3] | IC50 [4] | Ki [4] | IC50 (Cytochrome P450 2C19) | Ki (Cytochrome P450 2C19) | IC50 [5] | Ki [5] | IC50 [6] | Ki [6] | IC50 [7] | Ki [7]

CN1CCN(C2=Nc3cc(Cl)ccc3Nc3ccccc32)CC1 [CLOZAPINE]
Not Active: IC50 (Cytochrome P450 2C19) | Ki (Cytochrome P450 2C19)

CC(C)NC[C@@H](O)COc1cccc2ccccc12 [DEXPROPRANOLOL]
Not Active: IC50 (Cytochrome P450 2C19) | Ki (Cytochrome P450 2C19)

CC(C)NC[C@H](O)COc1cccc2ccccc12 [LEVOPROPRANOLOL]
Not Active: IC50 (Cytochrome P450 2C19) | Ki (Cytochrome P450 2C19)

O=C(O)CCCCC1CCSS1 (stereo not drawn) [LIPOIC ACID, ALPHA]
Not Active: IC50 (D(1A) dopamine receptor) | IC50 [1] | Ki [1] | IC50 [2] | Ki [2] | IC50 [3] | IC50 [4] | Ki [4] | IC50 (Cytochrome P450 2C19) | Ki (Cytochrome P450 2C19) | IC50 [5] | Ki [5] | IC50 [6] | Ki [6] | IC50 [7] | Ki [7]

CN(C)C(=O)C(CCN1CCC(O)(c2ccc(Cl)cc2)CC1)(c1ccccc1)c1ccccc1 [LOPERAMIDE]
Not Active: IC50 (Cytochrome P450 2C19) | Ki (Cytochrome P450 2C19)

Oc1ccc2c3c1O[C@H]1[C@@H](O)CC[C@@]4(O)[C@@H](C2)N(CC2CCC2)CC[C@]314 [NALBUPHINE]
Not Active: IC50 [3]

C[C@]12C=CC(=O)C=C1CC[C@@H]1[C@@H]2C(=O)C[C@@]2(C)[C@H]1CC[C@]2(O)C(=O)CO [PREDNISONE]
Not Active: IC50 (D(1A) dopamine receptor) | IC50 [1] | Ki [1] | IC50 [2] | Ki [2] | IC50 [3] | IC50 [4] | Ki [4] | IC50 [5] | Ki [5] | IC50 [6] | Ki [6] | IC50 [7] | Ki [7]

OCCOCCN1CCN(C2=Nc3ccccc3Sc3ccccc32)CC1 [QUETIAPINE]
Not Active: IC50 [3] | IC50 (Cytochrome P450 2C19) | Ki (Cytochrome P450 2C19)

COC(=O)[C@H]1[C@H]2C[C@@H]3c4[nH]c5cc(OC)ccc5c4CCN3C[C@H]2C[C@@H](OC(=O)c2cc(OC)c(OC)c(OC)c2)[C@@H]1OC [RESERPINE]
Not Active: IC50 (D(1A) dopamine receptor) | IC50 [1] | Ki [1] | IC50 [2] | Ki [2] | IC50 [3] | IC50 [4] | Ki [4] | IC50 (Cytochrome P450 2C19) | Ki (Cytochrome P450 2C19) | IC50 [5] | Ki [5] | IC50 [6] | Ki [6] | IC50 [7] | Ki [7]

O=C(O)c1ccccc1O [SALICYLIC ACID]
Not Active: IC50 (D(1A) dopamine receptor) | IC50 [1] | Ki [1] | IC50 [2] | Ki [2] | IC50 [3] | IC50 [4] | Ki [4] | IC50 (Cytochrome P450 2C19) | Ki (Cytochrome P450 2C19) | IC50 [5] | Ki [5] | IC50 [6] | Ki [6] | IC50 [7] | Ki [7]

C[S+]([O-])c1ccc(-c2nc(-c3ccncc3)c(-c3ccc(F)cc3)[nH]2)cc1 (centres undefined) [SB-203580]
Not Active: IC50 [3]

CC1CCC(NC(=O)N(CCCl)N=O)CC1 (centres undefined) [SEMUSTINE]
Not Active: IC50 (D(1A) dopamine receptor) | IC50 [1] | Ki [1] | IC50 [2] | Ki [2] | IC50 [3] | IC50 [4] | Ki [4] | IC50 (Cytochrome P450 2C19) | Ki (Cytochrome P450 2C19) | IC50 [5] | Ki [5] | IC50 [6] | Ki [6] | IC50 [7] | Ki [7]

O=C1C[C@@H]2OCC=C3CN4CC[C@]56c7ccccc7N1[C@H]5[C@H]2[C@H]3C[C@H]46 [STRYCHNINE]
Not Active: IC50 (D(1A) dopamine receptor) | IC50 [1] | Ki [1] | IC50 [2] | Ki [2] | IC50 [3] | IC50 [4] | Ki [4] | IC50 (Cytochrome P450 2C19) | Ki (Cytochrome P450 2C19) | IC50 [5] | Ki [5] | IC50 [6] | Ki [6] | IC50 [7] | Ki [7]

C[N+](C)(C)CCOC(=O)CCC(=O)OCC[N+](C)(C)C.[Cl-].[Cl-] [SUCCINYLCHOLINE CHLORIDE]
Not Active: IC50 (D(1A) dopamine receptor) | IC50 [1] | Ki [1] | IC50 [2] | Ki [2] | IC50 [3] | IC50 [4] | Ki [4] | IC50 [5] | Ki [5] | IC50 [6] | Ki [6] | IC50 [7] | Ki [7]

Nc1ccc(S(=O)(=O)NC(=O)c2ccccc2)cc1 [SULFABENZAMIDE]
Not Active: IC50 (D(1A) dopamine receptor) | IC50 [1] | Ki [1] | IC50 [2] | Ki [2] | IC50 [3] | IC50 [4] | Ki [4] | IC50 (Cytochrome P450 2C19) | Ki (Cytochrome P450 2C19) | IC50 [5] | Ki [5] | IC50 [6] | Ki [6] | IC50 [7] | Ki [7]

CCCCCCCCNC(C)C(O)c1ccc(SC(C)C)cc1 (centres undefined) [SULOCTIDIL]
Not Active: IC50 (D(1A) dopamine receptor) | IC50 [2] | Ki [2] | IC50 [4] | Ki [4] | IC50 (Cytochrome P450 2C19) | Ki (Cytochrome P450 2C19) | IC50 [5] | Ki [5] | IC50 [7] | Ki [7]

O=c1[nH]c(=O)n(C2CCCO2)cc1F (centres undefined) [TEGAFUR]
Not Active: IC50 (D(1A) dopamine receptor) | IC50 [1] | Ki [1] | IC50 [2] | Ki [2] | IC50 [3] | IC50 [4] | Ki [4] | IC50 (Cytochrome P450 2C19) | Ki (Cytochrome P450 2C19) | IC50 [5] | Ki [5] | IC50 [6] | Ki [6] | IC50 [7] | Ki [7]

CC(=N)S [THIOACETAMIDE]
Not Active: IC50 (D(1A) dopamine receptor) | IC50 [1] | Ki [1] | IC50 [2] | Ki [2] | IC50 [3] | IC50 [4] | Ki [4] | IC50 (Cytochrome P450 2C19) | Ki (Cytochrome P450 2C19) | IC50 [5] | Ki [5] | IC50 [6] | Ki [6] | IC50 [7] | Ki [7]

Cc1ccc(C(=O)c2ccc(CC(=O)O)n2C)cc1 [TOLMETIN]
Not Active: IC50 (D(1A) dopamine receptor) | IC50 [1] | Ki [1] | IC50 [2] | Ki [2] | IC50 [3] | IC50 [4] | Ki [4] | IC50 (Cytochrome P450 2C19) | Ki (Cytochrome P450 2C19) | IC50 [5] | Ki [5] | IC50 [6] | Ki [6] | IC50 [7] | Ki [7]

CC(=O)OCC(COC(C)=O)OC(C)=O [TRIACETIN]
Not Active: IC50 (D(1A) dopamine receptor) | IC50 [1] | Ki [1] | IC50 [2] | Ki [2] | IC50 [3] | IC50 [4] | Ki [4] | IC50 (Cytochrome P450 2C19) | Ki (Cytochrome P450 2C19) | IC50 [5] | Ki [5] | IC50 [6] | Ki [6] | IC50 [7] | Ki [7]

CN1CCN(CCCN2c3ccccc3Sc3ccc(C(F)(F)F)cc32)CC1 [TRIFLUOPERAZINE]
Not Active: IC50 (D(1A) dopamine receptor) | IC50 [1] | Ki [1] | IC50 [2] | Ki [2] | IC50 [3] | IC50 [4] | Ki [4] | IC50 [5] | Ki [5] | IC50 [6] | Ki [6] | IC50 [7] | Ki [7]

TRANSPLATIN
Not Active: IC50 (D(1A) dopamine receptor) | Ki (D(1A) dopamine receptor) | IC50 [1] | Ki [1] | IC50 [2] | Ki [2] | IC50 [3] | Ki [3] | IC50 [4] | Ki [4] | IC50 (Cytochrome P450 2C19) | Ki (Cytochrome P450 2C19) | IC50 [5] | Ki [5] | IC50 [6] | Ki [6] | IC50 [7] | Ki [7]
